Legend:
[1] = test system: Chinese hamster V79 lung fibroblasts; assay: V79 clonogenic survival, hypoxanthine/xanthine oxidase (HX/XO) cytotoxicity; settings: 1 mM
Description: Chinese hamster V79 lung fibroblasts were cultured in F12 medium supplemented with 10% fetal calf serum and antibiotics. Cell survival was assessed by clonogenic assay with 85-95% plating efficiency. Stock cultures of exponentially growing cells were trypsinized, rinsed, and plated (7×10^5 cells/dish) into a number of 100 cm^2 petri dishes and incubated 16 hr at 37° C. prior to experimental protocols.
It has been shown that exposure of V79 cells to hydrogen peroxide results in dose-dependent cytotoxicity (Mitchell et al., supra).
HX and XO were purchased from Boehringer Co. (Indianapolis, Ind.). Nitrite, diethylamine, sulfinamide, diethylenetriaminepentaacetic acid (DETAPAC) and N-(1-naphthyl)ethylenediaminedihydrogenchloride (NEDD) were purchased from Aldrich (Milwaukee, Wis.). Cytosine-β-D-arabinofuranoside and ferricytochrome c were purchased from Sigma (St. Louis, Mo.). DEA/NO and SPER/NO were synthesized as previously described (Maragos et al., (1991), supra).
Exponentially growing cultures of Chinese hamster V79 fibroblasts were exposed to either HX/XO (final concentration of HX was 0.5 mM; 0.08 units/ml XO were used) for various amounts of time (FIG. 1A) or to various concentrations of hydrogen peroxide for one hour (FIG. 1B). […] Additionally, 1 mM DEA/NO was added to medium in the absence of cells, incubated at 37° C. for 1 hr or 16 hrs, and then added just prior to the addition of hydrogen peroxide to evaluate the effects of DEA/NO which had released NO. After treatment, cell monolayers were rinsed twice with phosphate-buffered saline (PBS), trypsinized, counted and plated in triplicate for macroscopic colony formation. Each dose determination was plated in triplicate and experiments were repeated a minimum of two times. Plates were incubated for 7 days, after which colonies were fixed with methanol/acetic acid (3:1), stained with crystal violet, and counted. Colonies containing more than 50 cells were scored.

rat mesenteric venules = assay: Venular diameter, RBC velocity and wall shear rate after ischemia reperfusion; type: in vivo; settings: 100 μM in superfusate
Description: (§1) Male Sprague-Dawley rats weighing 200-250 g apiece were maintained on a purified laboratory diet and fasted for 24 hours prior to each experiment. The animals were initially anesthetized with pentobarbital (65 mg/kg body weight) and then a tracheotomy was performed to facilitate breathing during subsequent experimentation. The right carotid artery was cannulated and system arterial pressure was measured with a Statham P23A pressure transducer (Oxnard, Calif.) connected to the carotid artery cannula. Systemic blood pressure and heart rate were continuously recorder with a Grass physiologic recorded (Grass Instruments).
(§2) Rats were placed in a supine position on an adjustable plexiglass microscope stage and the mesentery was prepared for microscopic observation as described previously (Asako et al., Gastroenterology, 103, 146-152 (1992); Kurose et al., Circ. Res., in press (1993)). Briefly, the mesentery was draped over a non-fluorescent coverslip that allowed for observation of a 2 cm^2 segment of tissue. The exposed bowel wall was covered with Saran Wrap (Dow Chemical Co.) and the mesentery was superfused with bicarbonate-buffered saline (pH 7.4, 37° C.) that was bubbled with a mixture of 5% CO2 and […].
(§3) An inverted microscope (TMD-25, Diaphoto, Nikon, Tokyo, Japan) with a 40x objective lens (Fluor, Nikon) was used to observe the mesenteric microcirculation. The mesentery was transilluminated with a 12 V-100 W direct current-stabilized light source. A video camera (VK-C150, Hitachi, Ibaragi, Japan) mounted on the microscope projected the image onto a color monitor (PVM-2030, Sony, Tokyo, Japan) and the images were recorded using a videocassette record (NV8950, Panasonic, Tokyo, Japan). A video time-date generator (WJ810, Panasonic) projected the time, date and stopwatch function onto the monitor.
(§4) Single unbranched venules with diameters ranging between 25 and 35 μm and length greater than 150 μm were selected for study. Venular diameter (DV) was measured either on- or off-line using a video caliper (Microcirculation Research Institute, Texas A&M University, College Station, Tex.). Red blood cell centerline velocity (VRBC) was measured in venules using an optical Dopper velocimeter (Microcirculation Research Institute, Texas A&M University, College Station, Tex.). The velocimeter was calibrated against a rotating glass disk coated with red blood cells. Venular blood flow was calculated from the product of mean red blood cell velocity (Vmean =centerline velocity/1.6; Davis, Microvasc. Res., 34, 223-230 (1987)) and microvascular cross-sectional area, assuming cylindrical geometry. Wall shear rate (γ) was calculated based on the Newtonian definition γ=8(Vmean /D).
After all parameters measured on-line were in a steady state, images from the mesenteric preparation were recorded on videotape for 10 min. […] The mesentery was made ischemic for zero (sham ischemia) or 20 min. After the ischemic period, the ligation was gently removed. In some experiments, either sodium nitroprusside (SNP, 100 μM, Sigma Chemical), spermine-NO (SpNO, 100 μM), SIN-1 (100 μM), spermine (SP, 100 μM, Sigma Chemical), or NG-nitro-L-arginine methyl ester (L-NAME, 100 μM, Sigma Chemical) was added to the superfusate and the same protocol was employed. Spermine-NO and SIN-1, which are NO donors, were obtained from the National Institutes of Health, Bethesda, Md. […]

leukocytes = assay: Leukocyte adherence and emigration after ischemia reperfusion (mesenteric venules); type: in vivo, rat; settings: 20 min ischemia, 10 and 30 min reperfusion; 100 μM; FIG. 4B
Description: as §1, §2, §3, §4
The number of adherent leukocytes was determined off-line during playback of videotape images. A leukocyte was considered to be adherent to venular endothelium if it remained stationary for a period equal to or greater than 30 seconds (Granger et al., Am. J. Physiol., 257, G683-G688 (1989)). Adherent cells were expressed as the number per 100 μm length of venule. The number of emigrated leukocytes was also determined off-line during playback of videotape images. Any interstitial leukocytes present in the mesentery at the onset of the experiment were subtracted from the total number of leukocytes that accumulated during the course of the experiment. Leukocyte emigration was expressed as the number per field of view surrounding the venule. Platelet-leukocyte aggregates, which were visible within postcapillary venules, were quantitated and expressed as the number of aggregates crossing a fixed point within the venule over a 5 min period. Mast cells in the microvascular beds of the rat mesenteries were visualized by using 0.1% toluidine blue. The number of normal and degranulated mast cells was determined and the percentage of degranulated mast cells was calculated.

mesenteric venules = assay: Albumin leakage across mesenteric venules after ischemia reperfusion; type: in vivo, rat; settings: 10 min and 30 min after reperfusion; 100 μM; FIG. 4C
Description: as §1, §2, §3
as §4, with “The velocimeter was calibrated against a rotating glass disk coated with red blood cells.” left out
After all parameters measured on-line were in a steady state, images from the mesenteric preparation were recorded on videotape for 10 min. […]

[2] = test system: platelet-leukocyte aggregates; assay: Platelet-leukocyte aggregates after ischemia reperfusion; type: in vivo, rat; settings: 20 min ischemia, 30 min reperfusion; 100 μM; FIG. 6
Description: as §1, with “Instruments). […]” for “Instruments).”
(§5) An inverted microscope (TMD-25, Diaphoto, Nikon, Tokyo, Japan) with a 40x objective lens (Fluor, Nikon) was used to observe the mesenteric microcirculation. […] A video camera (VK-C150, Hitachi, Ibaragi, Japan) mounted on the microscope projected the image onto a color monitor (PVM-2030, Sony, Tokyo, Japan) and the images were recorded using a videocassette record (NV8950, Panasonic, Tokyo, Japan). […]
Single unbranched venules with diameters ranging between 25 and 35 μm and length greater than 150 μm were selected for study. Venular diameter (DV) was measured either on- or off-line using a video caliper (Microcirculation Research Institute, Texas A&M University, College Station, Tex.). […] Wall shear rate (γ) was calculated based on the Newtonian definition γ=8(Vmean /D). […]

mast cells = assay: Degranulation of microvascular mast cells after ischemia reperfusion; type: in vivo, rat; settings: 20 min ischemia, 30 min reperfusion; 100 μM; FIG. 7
Description: as §1, §2, §5
as §4, with “The velocimeter was calibrated against a rotating glass disk coated with red blood cells.” left out
The number of adherent leukocytes was determined off-line during playback of videotape images. […] Adherent cells were expressed as the number per 100 μm length of venule. The number of emigrated leukocytes was also determined off-line during playback of videotape images. […] Leukocyte emigration was expressed as the number per field of view surrounding the venule. […]

intestinal mucosa = assay: Intestinal blood to lumen 51Cr-EDTA clearance (mucosal permeability) in cat small intestine transplant; type: in vivo, cats
small intestine = assay: Water absorption in cat small intestine transplant; type: in vivo, cats; settings: during 120 min of reperfusion; 0.1 mmol; vs untreated; FIG. 10
microvasculature [3] = assay: Lymph flow and lymph protein clearance in cat small intestine transplant; type: in vivo, cats
microvasculature [4] = assay: Capillary pressure and vascular resistance in cat small intestine transplant; type: in vivo, cats; settings: FIG. 13
[5] = NO release rate / half-life; type: physicochemical; settings: vs DEA/NO

With `NCCCNCCCCN(CCCN)/[N+]([O-])=N/O` [SpNO, spermine-NO] the “protection against HX/XO-induced cell killing” value [1] was “protected V79 cells against HX/XO induced cytotoxicity but to a lesser extent than DEA/NO”, the “reversal of decrease in RBC velocity after reperfusion” value (rat mesenteric venules; in words) was “reversed the decreases” and the “reversal of decrease in wall shear rate after reperfusion” value (rat mesenteric venules; in words) was “reversed the decreases”. For the same molecule, the RBC velocity (rat mesenteric venules; 30 min after reperfusion) was 3.06 ± 0.28 mm/sec, the Venular diameter (rat mesenteric venules; 30 min after reperfusion) was 31.8 ± 2.1 μm and the Wall Shear Rate (rat mesenteric venules; 30 min after reperfusion) was 480 ± 27 s⁻¹. For the same molecule, the “reduction of number of emigrated leukocytes” value (leukocytes) was 64-71%, the “attenuation of albumin leakage” value (mesenteric venules) was 70% and the platelet-leukocyte aggregate formation [2] was “reduced”. The “degranulation of microvascular mast cells” value (mast cells) was “significantly inhibited”, the “mucosal permeability (51Cr-EDTA clearance)” value (intestinal mucosa; 6-hr hypothermic ischemia, 120 min reperfusion, FIG. 9) was “decreased” and the 51Cr-EDTA clearance (intestinal mucosa; at 75 and 90 min, 0.1 mmol luminal perfusate) was “statistically significant decrease”. For the same molecule, the water absorption (small intestine) was “increased significantly”, the lymph flow (microvasculature [3]; FIG. 11) was “Increased lymph flow” and the lymph protein clearance (microvasculature [3]; FIG. 12) was “increased lymph protein clearance”. For the same molecule, the capillary pressure (microvasculature [4]) was “Significant elevation” and the “NO release, times slower than DEA/NO” value [5] was 40 times.

From patent publication US5789447A, “Nitric oxide releasing compounds as protective agents in ischemia reperfusion injury” (priority 1995, dated 1998)
